Results reported in patent publication US4559325A, “Purified antineoplaston fractions and methods of treating neoplastic disease” (priority 1984, dated 1985).
Where a name gives a salt, the structure may show the parent alone.

Columns and labels:
[1] = Acute toxicity studies in mice; settings: mouse, in vivo, ip
Description: After a week, a select number of the mice were sacrificed.
Acute toxicity studies involving antineoplaston fractions A2-A5, antineoplaston A10 and degradation products were carried out in the same manner described above.

Rd/3 sarcoma = settings: rats, cited from earlier work

Compound	LD50 [1] [mg/kg]	enhancement of tumor growth (Rd/3 sarcoma; Rd/3 sarcoma)	effect on tumor growth, Rd/3 sarcoma (Rd/3 sarcoma; inhibition)
O=C1CCC(NC(=O)Cc2ccccc2)C(=O)N1 (stereo not drawn) [Antineoplaston A10, 3-[N-phenylacetylaminopiperidine]-2,6-dion]	10300		
O=C(O)Cc1ccccc1 [sodium salt of phenylacetic acid]		some enhancement of tumor growth	failed to inhibit tumor growth
